# What was measured:
# [1] = system: cholangiocarcinoma; settings: xenograft model of cholangiocarcinoma; cited from earlier work
# [2] = system: 5HT; settings: 200 mg/kg i.p. qid for 3 days; cited from earlier work
# [3] = target: T1, full length human TPH1 (Homo sapiens, UniProt P17752); assay: Biochemical in vitro assay using fluorescence readout (TPH1 enzyme activity); settings: Table 1, mean where determined several times
# T1 construct: To generate the enzyme, full length human TPH1 is cloned into the plasmid pET20b(+); made in house; host or cells: E. coli
# T1 sequence (P17752 1-444): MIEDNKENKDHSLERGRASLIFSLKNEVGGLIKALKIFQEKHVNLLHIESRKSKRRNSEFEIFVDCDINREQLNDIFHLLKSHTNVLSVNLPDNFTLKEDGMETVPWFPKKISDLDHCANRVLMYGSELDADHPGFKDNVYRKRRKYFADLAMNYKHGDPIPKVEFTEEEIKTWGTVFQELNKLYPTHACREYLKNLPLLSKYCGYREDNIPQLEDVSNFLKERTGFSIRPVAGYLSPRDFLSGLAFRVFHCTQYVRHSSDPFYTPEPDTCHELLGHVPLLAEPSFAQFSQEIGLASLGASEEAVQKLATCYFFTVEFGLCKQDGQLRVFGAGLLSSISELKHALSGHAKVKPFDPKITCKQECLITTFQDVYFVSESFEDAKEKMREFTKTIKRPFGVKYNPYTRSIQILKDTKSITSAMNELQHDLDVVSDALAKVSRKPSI
# How it was run: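 E. coli-expressed full-length human TPH1 (40-80 nM), affinity- and size-exclusion-purified, incubated 60 min at 15° C. in 0.1M Tris-HCl pH 7.6 with 1 mM DTT, 0.2 mg/ml catalase, 100 μM 6-methyltetrahydropterine and 40 μM L-tryptophan. 5-Hydroxy-L-tryptophan read by fluorescence (ex 300/em 540 nm) after HClO4 quench; IC50 versus vehicle, mean where repeated.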
# [4] = system: 5HT; settings: mice; cited from earlier work
# [5] = system: 5HT; settings: in vivo; cited from earlier work
# [6] = system: blood 5HT and urinary 5HIAA; settings: phase IIA study, qid; cited from earlier work
smiles,measurement,setting,value
"N[C@@H](Cc1ccc(Cl)cc1)C(=O)O (racemic) [PCA, p-chlorophenylalanine]",tumor volume,[1],dramatic reduction in tumor volume
same,5HT in the brain,[2],~20 % original
same,5HT in the gut,[2],~50 % original
"O=C(COc1ccc(N2CCOCC2)nc1Cl)N1CCc2nc3n(c2C1c1ccc(Cl)cc1F)CCOC3 (stereo not shown) [Example 6.1.1, 1-(6-(4-chloro-2-fluorophenyl)-3,4,8,9-tetrahydro-1 H-pyrido[4′,3′:4,5]imidazo[2,1-c][1,4]oxazin-7(6H)-yl)-2-((2-chloro-6-morpholinopyridin-3-yl)oxy)ethanone]",IC50,[3],0.004 µM
"CS(=O)(=O)Nc1ccc(OCC(=O)N2CCc3nc4n(c3C2c2ccc(Cl)cc2F)CCOC4)c(Cl)n1 (stereo not shown) [Example 6.1.2, N-(6-chloro-5-(2-(6-(4-chloro-2-fluorophenyl)-3,4,8,9-tetrahydro-1H-pyrido[4′,3′:4,5]imidazo[2,1-c][1,4]oxazin-7(6H)-yl)-2-oxoethoxy)pyridin-2-yl)methanesulfonamide]",IC50,[3],0.018 µM
"O=C(COc1ccc(N2CCOCC2)nc1Cl)N1CCc2nc3n(c2C1c1ccc(C2CC2)cc1F)CCOC3 (stereo not shown) [Example 6.2.1, 2-((2-chloro-6-morpholinopyridin-3-yl)oxy)-1-(6-(4-cyclopropyl-2-fluorophenyl)-3,4,8,9-tetrahydro-1H-pyrido[4′,3′:4,5]imidazo[2,1-c][1,4]oxazin-7(6H)-yl)ethanone]",IC50,[3],0.004 µM
"CN(C)C(=O)c1ccc(OCC(=O)N2CCc3nc4n(c3C2c2ccc(C3CC3)cc2F)CCOC4)c(Cl)c1 (stereo not shown) [Example 6.2.2, 3-chloro-4-(2-(6-(4-cyclopropyl-2-fluorophenyl)-3,4,8,9-tetrahydro-1H-pyrido[4′,3′:4,5]imidazo[2,1-c][1,4]oxazin-7(6H)-yl)-2-oxoethoxy)-N,N-dimethylbenzamide]",IC50,[3],0.013 µM
"CN(C)C(=O)c1ccc(OCC(=O)N2CCc3nc4n(c3C2c2ccc(C3CC3)cc2F)CCOC4)c(Cl)n1 (stereo not shown) [Example 6.2.3, 6-chloro-5-(2-(6-(4-cyclopropyl-2-fluorophenyl)-3,4,8,9-tetrahydro-1H-pyrido[4′,3′:4,5]imidazo[2,1-c][1,4]oxazin-7(6H)-yl)-2-oxoethoxy)-N,N-dimethylpicolinamide]",IC50,[3],0.003 µM
"CN(C)C(=O)c1ccc(OCC(=O)N2CCc3nc4n(c3C2c2sc(C(=O)N(C)C)cc2F)CCOC4)c(Cl)n1 (stereo not shown) [Example 6.3.1, 6-chloro-5-(2-(6-(5-(dimethylcarbamoyl)-3-fluoro-thiophen-2-yl)-3,4,8,9-tetrahydro-1H-pyrido[4′,3′:4,5]imidazo[2,1-c][1,4]oxazin-7(6H)-yl)-2-oxoethoxy)-N,N-dimethylpicolinamide]",IC50,[3],0.037 µM
"CS(=O)(=O)Nc1ccc(OCC(=O)N2CCc3nc4n(c3C2c2ncc(Cl)cc2F)CCOC4)c(Cl)n1 (stereo not shown) [Example 6.4.1, N-(6-chloro-5-(2-(6-(5-chloro-3-fluoropyridin-2-yl)-3,4,8,9-tetrahydro-1H-pyrido[4′,3′:4,5]imidazo[2,1-c][1,4]oxazin-7(6H)-yl)-2-oxoethoxy)pyridin-2-yl)methanesulfonamide]",IC50,[3],0.143 µM
"CN(C)C(=O)c1ccc(OCC(=O)N2CCc3nc4n(c3C2c2ncc(Cl)cc2F)CCOC4)c(Cl)n1 (stereo not shown) [Example 6.4.2, 6-chloro-5-(2-(6-(5-chloro-3-fluoropyridin-2-yl)-3,4,8,9-tetrahydro-1H-pyrido[4′,3′:4,5]imidazo[2,1-c][1,4]oxazin-7(6H)-yl)-2-oxoethoxy)-N,N-dimethylpicolinamide]",IC50,[3],0.076 µM
"Cc1ccc(C2c3c(nc4n3CCOC4)CCN2C(=O)COc2ccc(C(=O)N(C)C)nc2Cl)c(F)c1 (stereo not shown) [Example 6.5.1, 6-chloro-5-(2-(6-(2-fluoro-4-methylphenyl)-3,4,8,9-tetrahydro-1H-pyrido[4′,3′:4,5]imidazo[2,1-c][1,4]oxazin-7(6H)-yl)-2-oxoethoxy)-N,N-dimethylpicolinamide]",IC50,[3],0.007 µM
"O=C(COc1ccc(N2CCOCC2)nc1Cl)N1CCc2nc3n(c2C1c1sccc1F)CCOC3 (stereo not shown) [Example 6.6.1, 2-((2-chloro-6-morpholinopyridin-3-yl)oxy)-1-(6-(3-fluorothiophen-2-yl)-3,4,8,9-tetrahydro-1H-pyrido[4′,3′:4,5]imidazo[2,1-c][1,4]oxazin-7(6H)-yl)ethanone]",IC50,[3],0.008 µM
"CN(C)C(=O)c1ccc(OCC(=O)N2CCc3nc4n(c3C2c2sccc2F)CCOC4)c(Cl)n1 (stereo not shown) [Example 6.6.2, 6-chloro-5-(2-(6-(3-fluorothiophen-2-yl)-3,4,8,9-tetrahydro-1H-pyrido[4′,3′:4,5]imidazo[2,1-c][1,4]oxazin-7(6H)-yl)-2-oxoethoxy)-N,N-dimethylpicolinamide]",IC50,[3],0.029 µM
"CS(=O)(=O)Nc1ccc(OCC(=O)N2CCc3nc4n(c3C2c2sccc2F)CCOC4)c(Cl)n1 (stereo not shown) [Example 6.6.3, N-(6-chloro-5-(2-(6-(3-fluorothiophen-2-yl)-3,4,8,9-tetrahydro-1H-pyrido[4′,3′:4,5]imidazo[2,1-c][1,4]oxazin-7(6H)-yl)-2-oxoethoxy)pyridin-2-yl)methanesulfonamide]",IC50,[3],0.16 µM
Nc1nc(OC(c2ccc(-c3cccc(F)c3)cc2)C(F)(F)F)cc(-c2ccc(C[C@H](N)C(=O)O)cc2)n1 (stereo partly shown) [LP533401],brain 5HT concentrations,[4],without effecting brain concentrations
same,gut 5HT,[4],lower gut 5HT
"COc1cccc(-c2ccc([C@@H](Oc3cc(-c4ccc(C[C@H](N)C(=O)O)cc4)nc(N)n3)C(F)(F)F)cc2)c1 [LX1031, (S)-2-Amino-3-(4-{2-amino-6-[(R)-2,2,2-trifluoro-1-(3′-methoxy-biphenyl-4-yl)-ethoxy]-pyrimidin-4-yl}-phenyl)-propionic acid]",5HT in the colon,[5],only a minor reduction observed in the colon
same,5HT in the jejunum,[5],lowers 5HT in the jejunum
same,brain 5HT,[5],no effect on brain 5HT
same,blood 5HT,[6],did not affect blood 5HT
same,urinary 5HIAA reduction,[6],up to 30%

# Reference: patent publication US10189839B2, “Tricyclic imidazole compounds as inhibitors of tryptophan hydroxylase” (ACTELION PHARMACEUTICALS LTD, priority 2013, dated 2019)
